Measured values reported in ChEMBL document CHEMBL5346950, “Development of Biaryl-Containing Aldo-Keto Reductase 1C3 (AKR1C3) Inhibitors for Reversing AKR1C3-Mediated Drug Resistance in Cancer Treatment” (J Med Chem, 2023).

Tests used:
[1] = Clearance in Sprague-Dawley rat at 2 mg/kg, iv measured for 5760 mins by LC-MS/MS analysis; assay type: ADME, organism-based; conditions: in vivo
[2] = AUC (0 to infinity) in Sprague-Dawley rat at 10 mg/kg, IG measured for 5760 mins by LC-MS/MS analysis; assay type: ADME, organism-based; parameters: dose 10 mg/kg, time 5760 min, route ig; conditions: in vivo, po, 96 h
MCF7 [3] = test: Antiproliferative activity against human MCF7 cells transfected with AKR1C3 assessed as reduction in cell viability at 100 uM incubated for 72 hrs by MTT assay relative to control; assay type: functional
[4] = Elimination phase half life in Sprague-Dawley rat at 2 mg/kg, iv measured for 5760 mins by LC-MS/MS analysis; assay type: ADME, organism-based; conditions: in vivo, read-out: beta t1/2 (converted)
[5] = Bioavailability in Sprague-Dawley rat at 10 mg/kg, IG measured for 5760 mins by LC-MS/MS analysis; assay type: ADME, organism-based; conditions: in vivo, po
[6] = Cmax in Sprague-Dawley rat at 2 mg/kg, iv measured for 5760 mins by LC-MS/MS analysis; assay type: ADME, organism-based; parameters: dose 2 mg/kg, time 5760 min, route iv; conditions: in vivo
MCF7 [7] = test: Synergistic antiproliferative activity against human MCF7 cells overexpressing AKR1C3 assessed as combination index at 25 uM incubated for 72 hrs in presence of doxorubicin at 100 nM by Chou-Talalay method; assay type: functional
MCF7 [8] = test: Synergistic antiproliferative activity against human MCF7 cells overexpressing AKR1C3 assessed as combination index at 25 uM incubated for 72 hrs in presence of doxorubicin at 200 nM by Chou-Talalay method; assay type: functional
[9] = MRT (0 to infinity) in Sprague-Dawley rat at 2 mg/kg, iv measured for 5760 mins by LC-MS/MS analysis; assay type: ADME, organism-based; conditions: in vivo
MCF7 [10] = test: Synergistic antiproliferative activity against human MCF7 cells overexpressing AKR1C3 assessed as dose reduction index for doxorubicin at 25 uM incubated for 72 hrs in presence of doxorubicin at 200 nM by Chou-Talalay method; assay type: functional
[11] = Toxicity in BALB/c nude mouse xenografted with human MCF7 cells expressing AKR1C3 assessed as histopathological changes in heart at 10 mg/kg, po administered every 2 days for 3 weeks in presence of doxorubicin by H and E staining based analysis; assay type: organism-based; conditions: in vivo, 504 h
[12] = target: T1, Aldo-keto reductase family 1 member C4 (Homo sapiens, UniProt P17516); test: Inhibition of human recombinant AKR1C4 transfected in Escherichia coli BL21 (DE3) pLysS competent cells using S-tetralol as substrate assessed as inhibition of NADP+ dependent substrate oxidation incubated for 10 mins by fluorescence microplate reader assay
T1 sequence (P17516 whole entry): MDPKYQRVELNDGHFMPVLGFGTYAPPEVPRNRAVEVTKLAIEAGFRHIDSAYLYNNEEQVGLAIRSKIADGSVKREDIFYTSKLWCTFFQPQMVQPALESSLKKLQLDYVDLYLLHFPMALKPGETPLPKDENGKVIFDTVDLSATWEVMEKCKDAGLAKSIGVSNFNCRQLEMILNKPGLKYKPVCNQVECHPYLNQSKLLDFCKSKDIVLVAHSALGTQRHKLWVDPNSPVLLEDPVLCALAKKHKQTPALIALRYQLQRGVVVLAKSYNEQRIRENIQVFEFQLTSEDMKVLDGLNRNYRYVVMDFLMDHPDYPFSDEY

MCF7 [13] = test: Synergistic antiproliferative activity against human MCF7 cells overexpressing AKR1C3 assessed as dose reduction index for doxorubicin at 50 uM incubated for 72 hrs in presence of doxorubicin at 50 nM by Chou-Talalay method; assay type: functional

O=C(O)C1(c2ccc(-c3cc(Cl)cc(Cl)c3)c(F)c2)CC1
clearance [1]: 52.3 mL/min/kg
AUC [2]: 1592.21 ng·h/mL
Activity (MCF7 [3]): ~37%
half-life [4]: 19.1 h
bioavailability [5]: 53.7%
Cmax [6]: 24500 ng/mL
CI (MCF7 [7]): 0.351
CI (MCF7 [8]): 0.274
MRT inf [9]: 51.1 h
Activity_index (MCF7 [10]): 5.636
Activity [11]: Non-Toxic
IC50 [12]: > 10 µM
Activity_index (MCF7 [13]): 22.152
